Assay results as given in patent US20130072470A1 (ABBVIE INC., priority 2011, published 2013).

Molecular target: T1, Jak3 enzyme (aa 811-1103) (Homo sapiens, UniProt P52333)
T1 construct: Jak3 enzyme (aa 811-1103); expressed in SF9 cells as a GST fusion; GST; made in house; host or cells: SF9 insect cells
Test: In vitro Jak3 kinase activity measured by time-resolved fluorescence resonance energy transfer (trFRET)
Assay type: biochemical
Conditions: ATP 0.001 mM
Procedure: In Vitro Jak3 Kinase Activity Measured by Time-Resolved Fluorescence Resonance Energy Transfer (trFRET)
Varying concentrations of inhibitor were added to an assay well containing: Jak3 enzyme (aa 811-1103; expressed in SF9 cells as a GST fusion and purified by glutathione affinity chromatography; 3 nM), peptide substrate (biotin-TYR2, Sequence: Biotin-(Ahx)-AEEEYFFLFA-amide; 2 μM), MOPSO pH 6.5 (50 mM), MgCl2 (10 mM), MnCl2 (2 mM), DTT (2.5 mM), BSA (0.01% w/v), Na3VO4 (0.1 mM) and ATP (0.001 mM). After about 60 min incubation at rt, the reaction was quenched by addition of EDTA (final concentration: 100 mM) and developed by addition of revelation reagents (final approximate concentrations: 30 mM HEPES pH 7.0, 0.06% BSA, 0.006% Tween-20, 0.24 M KF, 80 ng/mL PT66K (europium labeled anti-phosphotyrosine antibody cat #61T66KLB Cisbio, Bedford, Mass.) and 0.8 μg/mL SAXL (Phycolink streptavidin-allophycocyanin acceptor, cat #PJ52S, Prozyme, San Leandro, Calif.). The developed reaction was incubated in the dark either at about 4° C., for about 14 h or for about 60 min at rt, then read via a time-resolved fluorescence detector (Rubystar, BMG) using a 337 nm laser for excitation and emission wavelength of 665 nm. Within the linear range of the assay, the observed signal at 665 nm is directly related to phosphorylated product and used to calculate the IC50 values.

T1 sequence (P52333 811-1103): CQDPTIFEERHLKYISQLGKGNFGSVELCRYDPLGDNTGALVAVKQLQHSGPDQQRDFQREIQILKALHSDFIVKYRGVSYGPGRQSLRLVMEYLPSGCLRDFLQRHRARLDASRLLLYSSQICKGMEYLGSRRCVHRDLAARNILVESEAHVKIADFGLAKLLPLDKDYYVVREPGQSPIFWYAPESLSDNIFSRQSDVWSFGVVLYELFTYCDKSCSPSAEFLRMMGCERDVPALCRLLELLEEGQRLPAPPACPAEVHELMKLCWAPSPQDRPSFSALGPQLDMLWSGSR

SMILES | IC50 (Table B) [µM] | IC50 [µM]
CC[C@@H]1C[C@H](NC(=O)c2ncoc2C)C[C@@H]1c1nnc2cnc3[nH]ccc3n12 [compound 42, N-((1S,3R,4S)-3-ethyl-4-(6H-pyrrolo[2,3-e][1,2,4]triazolo[4,3-a]pyrazin-1-yl)cyclopentyl)-5-methyloxazole-4-carboxamide] | 1 to 10 | –
CC[C@@H]1C[C@H](NC(=O)c2noc3c2CC(C)CC3)C[C@@H]1c1nnc2cnc3[nH]ccc3n12 (stereo partly drawn) [compound 29, N-((1S,3R,4S)-3-ethyl-4-(6H-pyrrolo[2,3-e][1,2,4]triazolo[4,3-a]pyrazin-1-yl)cyclopentyl)-5-methyl-4,5,6,7-tetrahydrobenzo[d]isoxazole-3-carboxamide] | 1 to 10 | –
C[C@@H]1CN(C(=O)N2CCOCC2)C[C@@H]1c1cnc2cnc3[nH]ccc3n12 [Example #20, ((3R,4S)-3-(3H-imidazo[1,2-a]pyrrolo[2,3-e]pyrazin-8-yl)-4-methylpyrrolidin-1-yl)(morpholino)methanone] | – | > 10
CC[C@@H]1C[C@H](NC(=O)C2(C#N)CC2)C[C@@H]1c1nnc2cnc3[nH]ccc3n12 [compound 54, 1-cyano-N-((1S,3R,4S)-3-ethyl-4-(6H-pyrrolo[2,3-e][1,2,4]triazolo[4,3-a]pyrazin-1-yl)cyclopentyl)cyclopropanecarboxamide] | 1 to 10 | –
CC[C@@H]1C[C@@H](C(=O)NCC(F)(F)F)C[C@@H]1c1nnc2cnc3[nH]ccc3n12 [Example #6, (1R,3R,4S)-3-ethyl-4-(6H-pyrrolo[2,3-e][1,2,4]triazolo[4,3-a]pyrazin-1-yl)-N-(2,2,2-trifluoroethyl)cyclopentanecarboxamide] | – | > 10
CC[C@@H]1C[C@H](NC(=O)CSc2nnc(C)o2)C[C@@H]1c1nnc2cnc3[nH]ccc3n12 [compound 75, N-((1S,3R,4S)-3-ethyl-4-(6H-pyrrolo[2,3-e][1,2,4]triazolo[4,3-a]pyrazin-1-yl)cyclopentyl)-2-(5-methyl-1,3,4-oxadiazol-2-ylthio)acetamide] | 1 to 10 | –
C[C@@H]1C[C@H](NCc2cnc(C(F)(F)F)nc2)C[C@@H]1c1cnc2cnc3[nH]ccc3n12 [Example #4, (1S,3S,4R)-3-(3H-imidazo[1,2-a]pyrrolo[2,3-e]pyrazin-8-yl)-4-methyl-N-((2-(trifluoromethyl)pyrimidin-5-yl)methyl)cyclopentylamine] | – | > 10
CC[C@@H]1C[C@H](NC(=O)CCc2cc(OC)no2)C[C@@H]1c1nnc2cnc3[nH]ccc3n12 [compound 36, N-((1S,3R,4S)-3-ethyl-4-(6H-pyrrolo[2,3-e][1,2,4]triazolo[4,3-a]pyrazin-1-yl)cyclopentyl)-3-(3-methoxyisoxazol-5-yl)propanamide] | 1 to 10 | –
CC[C@@H]1C[C@H](NC(=O)c2oc3ccccc3c2C)C[C@@H]1c1nnc2cnc3[nH]ccc3n12 [compound 43, N-((1S,3R,4S)-3-ethyl-4-(6H-pyrrolo[2,3-e][1,2,4]triazolo[4,3-a]pyrazin-1-yl)cyclopentyl)-3-methylbenzofuran-2-carboxamide] | 1 to 10 | –
CC[C@@H]1C[C@H](NC(=O)c2cc(OC)no2)C[C@@H]1c1nnc2cnc3[nH]ccc3n12 [compound 65, N-((1S,3R,4S)-3-ethyl-4-(6H-pyrrolo[2,3-e][1,2,4]triazolo[4,3-a]pyrazin-1-yl)cyclopentyl)-3-methoxyisoxazole-5-carboxamide] | 1 to 10 | –
C[C@@H]1C[C@H](N2CCC(C#N)CC2)C[C@@H]1c1cnc2cnc3[nH]ccc3n12 [Example #5, 1-((1S,3S,4R)-3-(3H-imidazo[1,2-a]pyrrolo[2,3-e]pyrazin-8-yl)-4-methylcyclopentyl)piperidine-4-carbonitrile] | – | > 10
CC[C@@H]1C[C@H](NC(=O)c2ccno2)C[C@@H]1c1nnc2cnc3[nH]ccc3n12 [compound 50, N-((1S,3R,4S)-3-ethyl-4-(6H-pyrrolo[2,3-e][1,2,4]triazolo[4,3-a]pyrazin-1-yl)cyclopentyl)isoxazole-5-carboxamide] | 1 to 10 | –
CC[C@@H]1C[C@H](NC(=O)Cc2cc(C)no2)C[C@@H]1c1nnc2cnc3[nH]ccc3n12 [compound 55, N-((1S,3R,4S)-3-ethyl-4-(6H-pyrrolo[2,3-e][1,2,4]triazolo[4,3-a]pyrazin-1-yl)cyclopentyl)-2-(3-methylisoxazol-5-yl)acetamide] | 1 to 10 | –
CC[C@@H]1CN(C(=O)NCC(F)F)C[C@@H]1c1cnc2cnc3[nH]ccc3n12 [Example #14, (3S,4R)—N-(2,2-difluoroethyl)-3-ethyl-4-(3H-imidazo[1,2-a]pyrrolo[2,3-e]pyrazin-8-yl)pyrrolidine-1-carboxamide] | – | 1 to 10
CCc1cc(C(=O)N[C@H]2C[C@@H](CC)[C@@H](c3nnc4cnc5[nH]ccc5n34)C2)on1 [compound 81, 3-ethyl-N-((1S,3R,4S)-3-ethyl-4-(6H-pyrrolo[2,3-e][1,2,4]triazolo[4,3-a]pyrazin-1-yl)cyclopentyl)isoxazole-5-carboxamide] | 1 to 10 | –

More lines, now with the values ahead:

IC50 (Table B) [µM] | IC50 [µM] | SMILES
> 10 | – | CC[C@@H]1C[C@H](NC(=O)C(CC2CC2)NC(C)=O)C[C@@H]1c1nnc2cnc3[nH]ccc3n12 (stereo partly drawn) [compound 31, 2-acetamido-3-cyclopropyl-N-((1S,3R,4S)-3-ethyl-4-(6H-pyrrolo[2,3-e][1,2,4]triazolo[4,3-a]pyrazin-1-yl)cyclopentyl)propanamide]
> 10 | – | CC[C@@H]1C[C@H](NC(=O)c2ccc(C)o2)C[C@@H]1c1nnc2cnc3[nH]ccc3n12 [compound 46, N-((1S,3R,4S)-3-ethyl-4-(6H-pyrrolo[2,3-e][1,2,4]triazolo[4,3-a]pyrazin-1-yl)cyclopentyl)-5-methylfuran-2-carboxamide]
1 to 10 | – | CC[C@@H]1C[C@H](NC(=O)CCC2CCC2)C[C@@H]1c1nnc2cnc3[nH]ccc3n12 [compound 67, 3-cyclobutyl-N-((1S,3R,4S)-3-ethyl-4-(6H-pyrrolo[2,3-e][1,2,4]triazolo[4,3-a]pyrazin-1-yl)cyclopentyl)propanamide]
1 to 10 | – | CC[C@@H]1C[C@H](NC(=O)CNC(=O)c2ccc(C)o2)C[C@@H]1c1nnc2cnc3[nH]ccc3n12 [compound 30, N-(2-((1S,3R,4S)-3-ethyl-4-(6H-pyrrolo[2,3-e][1,2,4]triazolo[4,3-a]pyrazin-1-yl)cyclopentylamino)-2-oxoethyl)-5-methylfuran-2-carboxamide]
– | > 10 | CC[C@@H]1CN(C(=O)NC2CCC2)C[C@@H]1c1cnc2cnc3[nH]ccc3n12 [Example #17, (3S,4R)—N-cyclobutyl-3-ethyl-4-(3H-imidazo[1,2-a]pyrrolo[2,3-e]pyrazin-8-yl)pyrrolidine-1-carboxamide]
1 to 10 | – | CC[C@@H]1C[C@H](NC(=O)c2cc3ccc(C)cc3o2)C[C@@H]1c1nnc2cnc3[nH]ccc3n12 [compound 33, N-((1S,3R,4S)-3-ethyl-4-(6H-pyrrolo[2,3-e][1,2,4]triazolo[4,3-a]pyrazin-1-yl)cyclopentyl)-6-methylbenzofuran-2-carboxamide]
1 to 10 | – | CC[C@@H]1C[C@H](NC(=O)CCc2nc(C)no2)C[C@@H]1c1nnc2cnc3[nH]ccc3n12 [compound 37, N-((1S,3R,4S)-3-ethyl-4-(6H-pyrrolo[2,3-e][1,2,4]triazolo[4,3-a]pyrazin-1-yl)cyclopentyl)-3-(3-methyl-1,2,4-oxadiazol-5-yl)propanamide]
1 to 10 | – | CC[C@@H]1C[C@H](NC(=O)CCC2NC(=O)NC2=O)C[C@@H]1c1nnc2cnc3[nH]ccc3n12 (stereo partly drawn) [compound 28, 3-(2,5-dioxoimidazolidin-4-yl)-N-((1S,3R,4S)-3-ethyl-4-(6H-pyrrolo[2,3-e][1,2,4]triazolo[4,3-a]pyrazin-1-yl)cyclopentyl)propanamide]
